In patent US7217723B2, “Heterocyclic compound having oxime group” (Eisai Co., Ltd., priority 2004, dated 2007):

test system: STAT6 activation; test: STAT6 activation inhibition test (IL-4-induced alkaline phosphatase STAT6 reporter gene assay); assay type: cell-based, human; conditions: Homo sapiens, HEK293; concentration giving 50% suppression of alkaline phosphatase activity induced by IL-4 (1 ng/mL), 16 hours; 293 cells stably expressing STAT6 gene and STAT6 reporter gene
Method: The inhibitory activity on STAT6 activation of the compound according to present invention was evaluated according to the following test.
1) Construction of the STAT6 Reporter Gene
The oligonucleotide of SEQ ID: 1 resuting from three STAT6 binding regions of the human immunoglobulin germline ε gene promoter linked togeter, and the complementary strand thereof were mixed, and after thermal denaturation and annealing, the 5′ and the 3′ ends were respectively cut with the restriction enzymes Kpn I (TaKaRa Shuzo Code No. 1068A) and Xba I (TaKaRa ShuzoCode No. 1093A), and the resulting fragment was cloned into the Kpn I/Xba I site of the pUG-BGH-PLAP vector (described in Molecular Pharmacology, 49: 860–873 1996). In addition, the TK promoter region of the herpesvirus for inducing general transcription factors was cloned into the Xba I/Hind III (TaKaRa ShuzoCode No. 1060A) site of the pUG-BGH-PLAP vector. Then, to collect a stable expression cell strain, the neomycin resistance gene, that is a PGK-neo expression cassette, was incorporated into the Sal I (TaKaRa Shuzo, Code No. 1080A) site of this vector. Cloning of the TK promoter and the PGK-neo expression cassette was carried out according to Molecular Pharmacology, 49: 860–873 1996.
2) Construction of the STAT6 Expression Vector
Using the oligonucleotide of SEQ ID: 2 containing the initiation codon of the STAT6 gene and the oligonucleotide of SEQ ID: 3 containing the stop codon, Total RNA was prepared from human peripheral blood cells with the RNeasy Mini kit (OIAGEN, Code No. 74104). Thereafter, a reverse transcription reaction was carried out with the Takara RNA LA PCR kit (TaKaRa Shuzo, Code No. RR012A) to prepare cDNA, and using the primers of SEQ ID: 2 and 3, a PCR reaction was carried out, to amplify the STAT6 gene.
PCR product was digested with EcoR I (TaKaRa Shuzo, Code No. 1040A) and Xho I (TaKaRa Shuzo, 1094A), thereafter, the digested fragment was isolated on an agarose gel. The isolated fragment was incorporated into the vector fragment derived from the EcoR I/Xho I digestion of the pcDNA3.1 (+) (invtrogen, Code No. U790-20) vector.
3) Transformation and Preparation of a Stable Expression Cell Strain
In a Falcon 6-well plate for tissue culture (Becton Dickinson, Code No. 35-3046), 3.0×10^5 of 293 cells derived from human embryo kidney (American Type Culture Collection) were distributed and cultured overnight. The STAT6 reporter gene (1.5 μg), the STAT6 gene (1.5 μg) that were prepared and lipofectamine (GIBCO BRL, Code No. 18324-012) (20 μL) were mixed in OPTI-MEM culture medium (GIBCO BRL, Code No. 31985-070) (0.3 mL), and allowed to stand at room temperature for 20 minutes. Thereafter, the OPTI-MEM culture medium (1.2 mL) was further added, OPTI-MEM culture medium not containing fetal calf serum was added to washed cells, which were cultured for 2 hours. A culture medium (1.5 mL) containing fetal calf serum was added, and the cells were cultured for 19 more hours. The culture was continued by exchanging the culture medium and adding Geneticin (SIGMA, Code No. G-5013) so as to obtain 1 mg/mL, and cells with drug tolerance were selected. The selected drug tolerant cells were suspended in a culture medium containing 1 mg/mL of Geneticin, and distributed in a 96-well microplate (Becton Dickinson, Code No. 35-3072) so as to obtain 0.5 cells/well to carrry out cloning, and the clones expressing alkaline phosphatase in response to IL-4 were collected.
4) STAT6 Activation Inhibition Test
Cells stably expressing the STAT6 gene and the STAT6 reporter gene, and expressing alkaline phosphatase in response to IL-4 were distributed in a 96-well microplate (Becton Dickinson, Code No. 35-3072) so as to obtain 5000 cells/180 μL/well, and cultured overnight. […]

Compared with `CN(CC(O)c1ccncc1)S(=O)(=O)c1csc2c1CCC/C2=N/O` (centres unmarked) [Example 21, (7Z)-7-Hydroxyimino-4,5,6,7-tetrahydro-benzo[b]thiophene-3-sulfonic acid (2-hydroxy-2-pyridine-4-yl-ethyl)-methyl-amide], `CN(C[C@H](O)c1ccc(F)cc1)S(=O)(=O)c1csc2c1CCC/C2=N/O` [Example 14, (7Z)-N-[(2R)-2-(4-Fluorophenyl)-2-hydroxyethyl]-7-(hydroxyimino)-N-methyl-4,5,6,7-tetrahydro-1-benzothiophene-3-sulfonamide] is 5.4-fold higher in IC50: 5.6 nM for the first, 30 nM for the second. The first is the more potent here.

First: CN(CCc1ccncc1)S(=O)(=O)c1csc2c1CCC/C2=N/O [Example 9, (7Z)-7-Hydroxyimino-4,5,6,7-tetrahydro-benzo[b]thiophene-3-sulfonic acid methyl-(2-pyridine-4-yl-ethyl)-amide]
Second: CN(CCc1cccnc1)S(=O)(=O)c1csc2c1CCC/C2=N/O [Example 7, (7Z)-7-Hydroxyimino-4,5,6,7-tetrahydro-benzo[b]thiophene-3-sulfonic acid methyl-(2-pyridine-3-yl-ethyl)-amide]
The IC50 of the first is 5.9-fold lower: 0.82 nM for the first, 4.8 nM for the second.

`CN(CC(O)c1ccc(F)cc1)S(=O)(=O)c1csc2c1CCC/C2=N/OC(N)=O` (centres unmarked) [Example 87, (7Z)-7-{[(Aminocarbonyl)oxy]imino}-3-{[[2-(4-fluorophenyl)-2-hydroxyethyl](methyl)amino]sulfonyl}-4,5,6,7-tetrahydro-1-benzothiophene] and `CN(CC(O)c1ccc(F)cc1)S(=O)(=O)c1csc2c1CCC/C2=N/OC(=O)C(C)(C)C` (centres unmarked) [Example 88, (7Z)-7-{[(2,2-Dimethylpropanoyl)oxy]imino}-N-[2-(4-fluorophenyl)-2-hydroxyethyl]-N-methyl-4,5,6,7-tetrahydro-1-benzothiophene-3-sulfonamide] are within 1.5-fold of each other in IC50: 0.5 nM for the first, 0.42 nM for the second.

Going from `CN(CC(O)c1ccc(F)cc1)S(=O)(=O)c1c(N)sc2c1CCC/C2=N\O` (centres unmarked) [Example 27, (7E)-2-Amino-7-hydroxyimino-4,5,6,7-tetrahydro-benzo[b]-thiophene-3-sulfonic acid [2-(4-fluorophenyl)-2-hydroxyethyl]-methyl-amide] to `CN(CC(O)c1ccc(F)cc1)S(=O)(=O)c1c(N)sc2c1CCC/C2=N/O` (centres unmarked) [Example 26, (7Z)-2-Amino-7-hydroxyimino-4,5,6,7-tetrahydro-benzo[b]-thiophene-3-sulfonic acid [2-(4-fluorophenyl)-2-hydroxyethyl]-methyl-amide], the IC50 falls from 11 nM to 2.6 nM (4.2-fold). The second is the more potent here.

First: CC(C)C(=NO)c1cc(S(=O)(=O)N(C)CC(O)c2ccc(F)cc2)cs1 (centres unmarked) [Example 48, 5-(1-Hydroxyimino-2-methylpropyl)thiophene-3-sulfonic acid [2-(4-fluorophenyl)-2-hydroxyethyl]-methyl-amide]
Second: CC(C)C(=NO)c1cc(S(=O)(=O)N(C)CCc2ccc(F)cc2)cs1 [Example 47, 5-(1-Hydroxyimino-2-methylpropyl)thiophene-3-sulfonic acid [2-(4-fluorophenyl)-ethyl]-methyl-amide]
The IC50 of the first is 2.5-fold higher: 30 nM for the first, 12 nM for the second. The second is the more potent here.

`CN(C[C@@H](O)c1ccc(F)cc1)S(=O)(=O)c1csc2c1CCC/C2=N/O` [Example 13, (7Z)-N-[(2S)-2-(4-Fluorophenyl)-2-hydroxyethyl]-7-(hydroxyimino)-N-methyl-4,5,6,7-tetrahydro-1-benzothiophene-3-sulfonamide] and `CN(CCc1ccccc1)C(=O)c1csc2c1CCC/C2=N/O` [Example 110, (7Z)-7-Hydroxyimino-4,5,6,7-tetrahydrobenzo[b]thiophene-3-carboxylic acid methylphenethyl amide] are within 1.5-fold of each other in IC50: 0.36 nM for the first, 0.32 nM for the second.

same assay, conditions: concentration giving 50% suppression of alkaline phosphatase activity induced by IL-4 (1 ng/mL), 16 hours; 293 cells stably expressing STAT6 gene and STAT6 reporter gene

Compared with `CN(CC(NC(N)=O)c1ccc(F)cc1)S(=O)(=O)c1csc2c1CCCC2=NO` (centres unmarked) [Example 25, 7-Hydroxyimino-4,5,6,7-tetrahydrobenzo[b]thiophene-3-sulfonic acid [(2-(4-fluorophenyl)-2-ureideethyl)]-methyl-amide], `CN(CC(O)c1ccc(F)cc1)S(=O)(=O)c1csc2c1CCC/C2=N\O` (centres unmarked) [Example 2, (7E)-7-Hydroxyimino-4,5,6,7-tetrahydro-benzo[b]thiophene-3-sulfonic acid[2-(4-fluorophenyl)-2-hydroxyethyl]-methyl-amide] is 59-fold lower in IC50: 13 nM for the first, 0.22 nM for the second. The second is the more potent here.

Compared with `C/C(=N/O)c1cc(S(=O)(=O)N(C)CCc2ccc(F)cc2)c(N)s1` [Example 60, 2-Amino-5-[(1Z)-hydroxyimino-ethyl]-thiophene-3-sulfonic acid [2-(4-fluorophenyl)-ethyl]-methyl-amide], `C/C(=N\O)c1cc(S(=O)(=O)N(C)CCc2ccc(F)cc2)c(N)s1` [Example 61, 2-Amino-5-[(1E)-hydroxyimino-ethyl]-thiophene-3-sulfonic acid [2-(4-fluorophenyl)-ethyl]-methyl-amide] is 42-fold higher in IC50: 1.6 nM for the first, 66.7 nM for the second. The first is the more potent here.

First: C/C(=N/O)c1cc(S(=O)(=O)N(C)CC(O)c2ccc(F)cc2)cs1 (centres unmarked) [Example 44]
Second: C/C(=N/O)c1cc(S(=O)(=O)N(C)CC(O)c2ccc(F)cc2)c(N)s1 (centres unmarked) [Example 52, 2-Amino-5-[(1Z)-hydroxyimino-ethyl]-thiophene-3-sulfonic acid [2-(4-fluorophenyl)-2-hydroxyethyl]-methyl-amide]
The IC50 of the first is 13-fold lower: 0.63 nM for the first, 7.9 nM for the second. The first is the more potent here.

`C/C(=N/O)c1ccc(S(=O)(=O)N(C)CCc2ccc(F)cc2)s1` [Example 37] and `CC(C)/C(=N/O)c1cc(S(=O)(=O)N(C)CCc2ccc(F)cc2)c(N)s1` [Example 63, 2-Amino-5-[(1Z)-hydroxyimino-2-methylpropyl]thiophene-3-sulfonic acid[2-(4-fluorophenyl)ethyl]-methyl-amide] are within 1.5-fold of each other in IC50: 30 nM for the first, 40 nM for the second.

Going from `CN(CCc1ccc(F)cc1)S(=O)(=O)c1csc2c1CCC(O)/C2=N/O` (centres unmarked) [Example 33, (7Z)-6-Hydroxy-7-hydroxyimino-4,5,6,7-tetrahydrobenzo[b]-thiophene-3-sulfonic acid[(2-(4-fluorophenyl)ethyl)]-methyl-amide] to `CC1CCc2c(S(=O)(=O)N(C)CCc3ccc(F)cc3)csc2/C1=N\O` (centres unmarked) [Example 31, (7Z)-7-Hydroxyimino-6-methyl-4,5,6,7-tetrahydrobenzo[b]-thiophene-3-sulfonic acid[(2-(4-fluorophenyl)ethyl)]-methyl-amide], the IC50 falls from 11 nM to 4.3 nM (2.6-fold). The second is the more potent here.

First: CN(CCc1ccc(F)c([N+](=O)[O-])c1)S(=O)(=O)c1csc2c1CCC/C2=N/O [Example 6, (7Z)-7-Hydroxyimino-4,5,6,7-tetrahydro-benzo[b]thiophene-3-sulfonic acid[2-(4-fluoro-3-nitro-phenyl)-ethyl]-methyl-amide]
Second: CN(CCc1ccc(F)cc1[N+](=O)[O-])S(=O)(=O)c1csc2c1CCC/C2=N/O [Example 5, (7Z)-7-Hydroxyimino-4,5,6,7-tetrahydro-benzo[b]thiophene-3-sulfonic acid[2-(4-fluoro-2-nitro-Phenyl)-ethyl]-methyl-amide]
The IC50 of the first is 4.3-fold lower: 4.9 nM for the first, 21 nM for the second.

Compared with `CCOc1ccc(NC(=O)O/N=C2/CCCc3c(S(=O)(=O)N(C)CC(O)c4ccc(F)cc4)csc32)cc1` (centres unmarked) [Example 73, (7Z)-7-({[(4-Ethoxyanilino)carbonyl]oxo}imino)-3-{[[2-(4-fluoro-phenyl)-2-hydroxyethyl](methyl)amino]sulfonyl}-4,5,6,7-tetrahydro-1-benzothiophene], `CC1CCc2c(S(=O)(=O)N(C)CC(O)c3ccc(F)cc3)csc2/C1=N\O` (centres unmarked) [Example 32, (7Z)-7-Hydroxyimino-6-methyl-4,5,6,7-tetrahydrobenzo[b]-thiophene-3-sulfonic acid[(2-(4-fluorophenyl)-2-hydroxyethyl)]-methyl-amide] is 11-fold higher in IC50: 0.9 nM for the first, 10.1 nM for the second.
